The test system of data set [1] is Mycosphaerella graminicola; Anamorph: Septoria tritici. Description: Fungicidal activity: Leaf Blotch of Wheat (SEPTTR). The format is in vivo. The note with it: Zymoseptoria tritici; for pest or weed control at 121.5 g/ha: Low Volume (121.5 g/H). In short, it runs like this: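 Compounds were dissolved in acetone, diluted with nine volumes of water containing 110 ppm Triton X-100, and sprayed to run-off on first-leaf Yuma wheat seedlings inoculated with Septoria tritici spores before or after treatment. Plants were held in a dew chamber, then a 20° C. greenhouse. Percent control was derived from disease severity relative to untreated plants.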

The next data set has as its system Puccinia triticina. Briefly: Fungicidal activity: Wheat Brown Rust (PUCCRT). The data set is classed as in vivo. Conditions: for pest or weed control at 100 µg/mL: High Volume (100 ppm); for pest or weed control at 121.5 g/ha: Low Volume (121.5 g/H). A digest of the protocol: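 Percent control of brown rust was derived from 0-100% severity on treated versus untreated first leaves. Yuma wheat seedlings were spray-treated to run-off (acetone/water, Triton X-100) and inoculated with P. triticina spores before or after treatment, then held overnight in dark dew at 22° C and moved to a 24° C greenhouse.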

[2] abbreviates: 24 h, 1 Day Protectant, read-out: PUCCRT 1 DP disease control.
[3] abbreviates: 72 h, 3 Day Curative, read-out: PUCCRT 3 DC disease control.
Where [4] appears, read: 24 h, High Volume (100 ppm), 1 Day Protectant, wheat leaf blotch, read-out: SEPTTR 1 DP disease control.
[5] abbreviates: 24 h, 1 Day Protectant, wheat leaf blotch, read-out: SEPTTR 1 DP disease control.
Where [6] appears, read: 72 h, High Volume (100 ppm), 3 Day Curative, wheat leaf blotch, read-out: SEPTTR 3 DC disease control.
[7] abbreviates: 72 h, 3 Day Curative, wheat leaf blotch, read-out: SEPTTR 3 DC disease control.

Like-named read-outs stand apart in the source and are kept apart here. A value given as a limit tells only on which side of the number the result lay.

The values that follow come from patent US9955691B2, “Macrocyclic picolinamides as fungicides” (DOW AGROSCIENCES LLC, priority 2014, dated 2018).

By melting point is commonly meant the temperature, or range, at which the solid turns liquid.

Regarding `COc1ccnc(C(=O)N[C@H]2COC[C@H](Cc3ccccc3)[C@@H](Cc3ccccc3)[C@H](C)OC2=O)c1O` [Cmpd. 112, N-((3S,7R,8R,9S)-7,8-dibenzyl-9-methyl-2-oxo-1,5-dioxonan-3-yl)-3-hydroxy-4-methoxypicolinamide], the melting point lay within 69 to 72 °C. In addition, the pest or weed control at 100 µg/mL in data set [1] (24 h, read-out: SEPTTR 1 DP disease control) was under 70%. Further, in data set [1] (72 h, read-out: SEPTTR 3 DC disease control), the pest or weed control at 100 µg/mL is under 70%. Moreover, in the data set with Puccinia triticina (setting [2]), the pest or weed control at 100 µg/mL is under 70%. Further, the pest or weed control at 100 µg/mL in the data set on Puccinia triticina (setting [3]) was under 70%.

`COc1ccnc(C(=O)N[C@H]2COC[C@H](CCc3ccccc3)[C@@H](CCc3ccccc3)[C@H](C)OC2=O)c1OCOC(C)=O` [compound 4] gave a melting point of 42 to 47 °C. In addition, in data set [1] (setting [4]), the pest or weed control at 100 µg/mL is over 70%. Also, the pest or weed control at 121.5 g/ha in data set [1] (setting [5]) was over 70%. In addition, the pest or weed control at 100 µg/mL in data set [1] (setting [6]) is over 70%. Also, the pest or weed control at 121.5 g/ha in data set [1] (setting [7]) was over 70%. In addition, in the data set on Puccinia triticina (setting [2]), the pest or weed control at 100 µg/mL is over 70% and the pest or weed control at 121.5 g/ha was over 70%. In the data set with Puccinia triticina (setting [3]), the pest or weed control at 100 µg/mL is over 70% and the pest or weed control at 121.5 g/ha is under 70%.

Compound `C=C[C@@H]1[C@@H](Cc2ccccc2)COC[C@H](NC(=O)c2nccc(OC)c2OCOC(C)=O)C(=O)O[C@H]1C` [compound 9] showed a melting point of 42 to 48 °C. Further, in data set [1] (setting [4]), the pest or weed control at 100 µg/mL is over 70%. Moreover, in data set [1] (setting [6]), the pest or weed control at 100 µg/mL is over 70%. Besides, the pest or weed control at 100 µg/mL with Puccinia triticina (setting [2]) is over 70%. For the same compound, the pest or weed control at 100 µg/mL in the data set on Puccinia triticina (setting [3]) was over 70%.

In turn, `COc1ccnc(C(=O)N[C@H]2COC[C@H](CC3CCCCC3)[C@@H](CC3CCCCC3)[C@H](C)OC2=O)c1OCOC(C)=O` [compound 10] had a melting point of 50 to 56 °C. Further, the pest or weed control at 100 µg/mL in data set [1] (setting [4]) was over 70%. Moreover, the pest or weed control at 100 µg/mL in data set [1] (setting [6]) is under 70%. The pest or weed control at 100 µg/mL in the data set on Puccinia triticina (setting [2]) was over 70%. In addition, the pest or weed control at 100 µg/mL with Puccinia triticina (setting [3]) was over 70%.

As for `C=C(C)COC[C@@H]1[C@@H](Cc2ccccc2)COC[C@H](NC(=O)c2nccc(OC)c2OCOC(C)=O)C(=O)O[C@H]1C` [compound 11], the melting point lay within 35 to 40 °C.

Compound `COc1ccnc(C(=O)N[C@@H]2COC[C@@H](Cc3ccccc3)[C@H](COCC(C)C)[C@@H](C)OC2=O)c1OCOC(C)=O` [compound 13] returned a melting point of 44 to 48 °C. Further, the pest or weed control at 100 µg/mL in data set [1] (setting [4]) was over 70%. For the same compound, the pest or weed control at 121.5 g/ha in data set [1] (setting [5]) was over 70%. Besides, the pest or weed control at 100 µg/mL in data set [1] (setting [6]) was over 70%. For the same compound, the pest or weed control at 121.5 g/ha in data set [1] (setting [7]) is over 70%. Moreover, in the data set with Puccinia triticina (setting [2]), the pest or weed control at 100 µg/mL was over 70% and the pest or weed control at 121.5 g/ha is over 70%. Besides, in the data set on Puccinia triticina (setting [3]), the pest or weed control at 100 µg/mL was over 70% and the pest or weed control at 121.5 g/ha was over 70%.

In the case of `COc1cccc(C[C@H]2COC[C@H](NC(=O)c3nccc(OC)c3OCOC(C)=O)C(=O)O[C@@H](C)[C@@H]2Cc2cccc(OC)c2)c1` [compound 17], the melting point fell in the range of 51 to 55 °C. The pest or weed control at 121.5 g/ha in data set [1] (setting [5]) was over 70%. Further, the pest or weed control at 121.5 g/ha in data set [1] (setting [7]) was over 70%. Moreover, the pest or weed control at 121.5 g/ha in the data set with Puccinia triticina (setting [2]) was over 70%. In addition, the pest or weed control at 121.5 g/ha in the data set on Puccinia triticina (setting [3]) is under 70%.

As for `COc1ccnc(C(=O)N[C@H]2COC[C@H](Cc3ccccc3)[C@@H](c3ccccc3)[C@H](C)OC2=O)c1OCOC(=O)C(C)C` [compound 52], the melting point lay within 69 to 73 °C.

In turn, `COc1ccnc(C(=O)N[C@H]2COC[C@H](Cc3ccccc3)[C@@H](c3ccccc3)[C@H](C)OC2=O)c1OC(C)=O` [compound 54] yielded a melting point of 99 to 103 °C. For the same compound, the pest or weed control at 121.5 g/ha in data set [1] (setting [5]) is over 70%. In addition, the pest or weed control at 121.5 g/ha in data set [1] (setting [7]) is over 70%. For the same compound, the pest or weed control at 121.5 g/ha in the data set on Puccinia triticina (setting [2]) is over 70%. Further, in the data set on Puccinia triticina (setting [3]), the pest or weed control at 121.5 g/ha is over 70%.

Regarding `COc1ccnc(C(=O)N[C@H]2COC[C@H](Cc3ccc(Cl)cc3)[C@@H](Cc3ccc(OC(F)(F)F)cc3)[C@H](C)OC2=O)c1OCOC(C)=O` [compound 58], the melting point lay in the range of 158 to 161 °C. In addition, the pest or weed control at 121.5 g/ha in data set [1] (setting [5]) is over 70%. The pest or weed control at 121.5 g/ha in data set [1] (setting [7]) is over 70%. For the same compound, in the data set with Puccinia triticina (setting [2]), the pest or weed control at 121.5 g/ha was over 70%. Also, the pest or weed control at 121.5 g/ha in the data set with Puccinia triticina (setting [3]) was under 70%.

The compound `COc1ccnc(C(=O)N[C@H]2COC[C@H](Cc3ccc(Cl)cc3)[C@@H](Cc3ccc(OC(F)(F)F)cc3)[C@H](C)OC2=O)c1OC(C)=O` [compound 59] had a melting point of 80 to 85 °C. Further, the pest or weed control at 121.5 g/ha in data set [1] (setting [5]) was under 70%. The pest or weed control at 121.5 g/ha in data set [1] (setting [7]) was under 70%. In addition, in the data set on Puccinia triticina (setting [2]), the pest or weed control at 121.5 g/ha was under 70%. In addition, the pest or weed control at 121.5 g/ha in the data set on Puccinia triticina (setting [3]) was under 70%.

Compound `COc1ccnc(C(=O)N[C@H]2COC[C@H](Cc3ccc(C(F)(F)F)cc3)[C@@H](Cc3ccc(OC(F)(F)F)cc3)[C@H](C)OC2=O)c1OCOC(C)=O` [compound 66] gave a melting point of 57 to 60 °C. Further, the pest or weed control at 121.5 g/ha in data set [1] (setting [5]) is over 70%. In data set [1] (setting [7]), the pest or weed control at 121.5 g/ha is over 70%. The pest or weed control at 121.5 g/ha in the data set with Puccinia triticina (setting [2]) was over 70%. The pest or weed control at 121.5 g/ha with Puccinia triticina (setting [3]) was over 70%.

The compound `COc1ccnc(C(=O)N[C@H]2COC[C@H](CCCc3ccccc3)[C@@H](CCc3ccccc3)[C@H](C)OC2=O)c1OCOC(C)=O` [compound 67] came in with a melting point of 37 to 40 °C. Besides, in data set [1] (setting [5]), the pest or weed control at 121.5 g/ha is under 70%. Besides, the pest or weed control at 121.5 g/ha in data set [1] (setting [7]) is under 70%. In addition, the pest or weed control at 121.5 g/ha with Puccinia triticina (setting [2]) was under 70%. In addition, in the data set with Puccinia triticina (setting [3]), the pest or weed control at 121.5 g/ha is under 70%.

On to `C=C[C@@H]1[C@@H](Cc2ccccc2)COC[C@H](NC(=O)c2nccc(OC)c2O)C(=O)O[C@H]1C` [compound 118], for which the melting point is 57 to 63 °C.

`C[C@@H]1OC(=O)[C@@H](NC(=O)OC(C)(C)C)COC[C@H](c2ccccc2)[C@H]1c1ccccc1` [compound 204] registered a melting point of 63 to 71 °C.

Regarding `C=C[C@@H]1[C@@H](Cc2ccccc2)COC[C@H](NC(=O)OC(C)(C)C)C(=O)O[C@H]1C` [compound 205], the melting point is 134 to 138 °C.

In turn, `C[C@@H]1OC(=O)[C@@H](NC(=O)OC(C)(C)C)COC[C@H](CC2CCCCC2)[C@H]1CC1CCCCC1` [compound 206] yielded a melting point of 44 to 50 °C.

The compound `C=C(C)COC[C@@H]1[C@@H](Cc2ccccc2)COC[C@H](NC(=O)OC(C)(C)C)C(=O)O[C@H]1C` [compound 208] yielded a melting point of 84 to 88 °C.

Consider `C[C@@H]1OC(=O)[C@@H](NC(=O)OC(C)(C)C)COC[C@H](CC2CCCC2)[C@H]1CC1CCCC1` [compound 215], for which the melting point lay within 95 to 99 °C.

The compound `C[C@@H]1OC(=O)[C@@H](NC(=O)OC(C)(C)C)COC[C@H](Cc2ccccc2)[C@H]1Cc1ccc(OC(F)(F)F)cc1` [compound 223] yielded a melting point of 47 to 51 °C.

`C[C@@H]1OC(=O)[C@@H](NC(=O)OC(C)(C)C)COC[C@H](Cc2ccccc2)[C@H]1c1ccccc1` [compound 224] showed a melting point of 66 to 71 °C.

On to `C[C@@H]1OC(=O)[C@@H](NC(=O)OC(C)(C)C)COC[C@H](Cc2ccc(C(F)(F)F)cc2)[C@H]1Cc1ccc(OC(F)(F)F)cc1` [compound 225], for which the melting point was in the range of 50 to 56 °C.

The compound `CC(C)C[C@@H]1[C@@H](Cc2ccc(C(F)(F)F)cc2)COC[C@H](NC(=O)OC(C)(C)C)C(=O)O[C@H]1C` [compound 229] had a melting point of 115 to 118 °C.

Take `C[C@@H]1OC(=O)[C@@H](NC(=O)OC(C)(C)C)COC[C@H](Cc2ccc(Cl)cc2)[C@H]1C1CCCC1` [compound 237]: the melting point was in the range of 113 to 115 °C.
